Laboratory results reported in ChEMBL document CHEMBL4715769, “Discovery of a novel chimeric ubenimex-gemcitabine with potent oral antitumor activity” (Bioorg Med Chem, 2016).
Activity calls are given as the source filed them. The rule behind the calls is not given here.

Legend:
[1] = tested on: PLC-PRF-5; assay: Antitumor activity against human PLC-PRF-5 cells xenografted in BALB/c nude mouse assessed as inhibition of tumor growth by measuring T/C ratio at 25 mg/kg, ip; format: functional
[2] = tested on: MDA-MB-231; assay: Antiproliferative activity against human MDA-MB-231 cells after 48 hrs by MTT assay; conditions: MDA-MB-231, 48 h
[3] = tested on: PLC-PRF-5; assay: Induction of apoptosis in human PLC-PRF-5 cells assessed as late apoptotic cells at 2 uM after 48 hrs by Annexin V-FITC/propidium iodide staining-based flow cytometric analysis (reference value: 8.7 %); format: functional
[4] = tested on: KG-1; assay: Antiproliferative activity against human KG1 cells after 48 hrs by MTT assay; conditions: KG-1, 48 h
[5] = tested on: PLC-PRF-5; assay: Induction of apoptosis in human PLC-PRF-5 cells assessed as necrotic cells at 2 uM after 48 hrs by Annexin V-FITC/propidium iodide staining-based flow cytometric analysis (reference value: 6.1 %); format: functional
[6] = tested on: PLC-PRF-5; assay: Antiproliferative activity against human PLC-PRF-5 cells after 48 hrs by MTT assay; conditions: PLC-PRF-5, 48 h
[7] = Antiproliferative activity against human 3AO cells after 48 hrs by MTT assay
[8] = tested on: HEL; assay: cells; conditions: Homo sapiens, 48 h
Description: Antiproliferative activity against human HEL cells after 48 hrs by MTT assay

[9] = tested on: H22; assay: Antitumor activity against mouse H22 cells transplanted in Kunming mouse assessed as tumor growth inhibition at 25 mg/kg, ip administered every 4 days for 4 doses; format: functional, organism-based; conditions: time 4.0 day
[10] = tested on: U-937; assay: cells; conditions: Homo sapiens, U-937, 48 h
Description: Antiproliferative activity against human U937 cells after 48 hrs by MTT assay

[11] = tested on: U-266; assay: Antiproliferative activity against human U266 cells after 48 hrs by MTT assay; conditions: U-266, 48 h
[12] = tested on: HeLa; assay: cells; conditions: Homo sapiens, 48 h
[13] = tested on: K562; assay: cells; conditions: Homo sapiens, K562, 48 h
[14] = tested on: L02; assay: Antiproliferative activity against human HL7702 cells after 48 hrs by MTT assay; conditions: L02, 48 h
[15] = tested on: PC-3; assay: cells; conditions: Homo sapiens, PC-3, 48 h
Description: Antiproliferative activity against human PC-3 cells after 48 hrs by MTT assay

[16] = tested on: A549; assay: cells; conditions: Homo sapiens, A549, 48 h
[17] = Antiproliferative activity against human ES2 cells after 48 hrs by MTT assay; conditions: ES-2, 48 h
[18] = tested on: Aorta; assay: Antiangiogenic activity in Wistar rat thoracic aortic rings assessed as decrease in number of microvessels sprouting at 20 ug/ml treated every other day for 9 days; format: functional, tissue-based; conditions: dose 20.0 µg/ml, time 9.0 day
[19] = Prodrug conversion in human plasma assessed as release of active metabolites GEM and Ube measured within 120 mins at 37 degC by HPLC analysis; format: ADME, cell-free; conditions: 2 h
[20] = molecular target: T1, Aminopeptidase N (Sus scrofa, UniProt P15145); assay: Inhibition of porcine kidney microsomal CD13 using L-leucine-p-nitroanilide as substrate preincubated for 5 mins followed by substrate addition and measured after 30 mins by microplate reader analysis; format: microsomes, Microsome
T1 sequence (P15145 whole entry): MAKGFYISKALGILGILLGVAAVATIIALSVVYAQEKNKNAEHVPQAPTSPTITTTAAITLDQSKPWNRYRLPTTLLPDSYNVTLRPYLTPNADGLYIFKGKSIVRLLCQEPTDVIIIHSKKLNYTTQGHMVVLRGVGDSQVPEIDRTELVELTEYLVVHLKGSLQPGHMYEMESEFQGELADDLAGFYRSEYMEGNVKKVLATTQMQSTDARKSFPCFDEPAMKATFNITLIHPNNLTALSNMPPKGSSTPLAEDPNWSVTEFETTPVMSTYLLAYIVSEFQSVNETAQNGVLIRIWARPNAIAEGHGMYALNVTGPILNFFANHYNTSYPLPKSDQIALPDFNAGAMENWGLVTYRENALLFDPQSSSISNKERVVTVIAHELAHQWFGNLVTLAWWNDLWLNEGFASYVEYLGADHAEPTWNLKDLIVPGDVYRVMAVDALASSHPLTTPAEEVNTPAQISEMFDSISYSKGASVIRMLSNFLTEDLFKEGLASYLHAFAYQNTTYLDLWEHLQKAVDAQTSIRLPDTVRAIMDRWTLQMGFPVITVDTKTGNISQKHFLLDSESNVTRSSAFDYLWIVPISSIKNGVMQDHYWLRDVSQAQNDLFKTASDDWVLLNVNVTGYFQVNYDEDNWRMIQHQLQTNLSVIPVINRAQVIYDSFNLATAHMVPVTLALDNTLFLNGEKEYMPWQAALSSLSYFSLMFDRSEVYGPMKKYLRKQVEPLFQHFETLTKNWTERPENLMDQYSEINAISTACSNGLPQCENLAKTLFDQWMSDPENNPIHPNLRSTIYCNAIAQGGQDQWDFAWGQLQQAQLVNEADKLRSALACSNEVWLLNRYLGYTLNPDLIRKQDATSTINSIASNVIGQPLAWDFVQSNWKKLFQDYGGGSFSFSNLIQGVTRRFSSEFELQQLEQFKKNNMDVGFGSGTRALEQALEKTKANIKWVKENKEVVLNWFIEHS

[21] = tested on: PLC-PRF-5; assay: Inhibition of colony formation in human PLC-PRF-5 cells assessed as reduction in number of colonies at 0.2 uM after 2 weeks by Giemsa staining based inverted microscopic analysis; format: functional, cell-based
[22] = tested on: HUVEC; assay: Antiangiogenic activity in HUVEC assessed as inhibition of capillary like tubular formation at 30 uM after 8 hrs by matrigel based tube formation assay; format: functional; conditions: Homo sapiens
[23] = tested on: HepG2; conditions: Homo sapiens, dose 25.0 mg/kg
Description: Antitumor activity against human HepG2 cells xenografted in BALB/c nude mouse assessed as inhibition of tumor growth at 25 mg/kg, po

[24] = tested on: H22; assay: Antitumor activity against mouse H22 cells transplanted in Kunming mouse assessed as tumor growth inhibition at 25 mg/kg, po administered every 4 days for 4 doses; format: functional, organism-based; conditions: time 4.0 day
[25] = tested on: PLC-PRF-5; assay: Antitumor activity against human PLC-PRF-5 cells xenografted in BALB/c nude mouse assessed as inhibition of tumor growth by measuring T/C ratio at 25 mg/kg, po; format: functional

IC50 [2] | IC50 [8] | IC50 [10] | IC50 [12] | IC50 [13] | IC50 [15] | IC50 [16] | Structure (SMILES) | Activity [3] | IC50 [4] | Activity [5] | IC50 [6] | IC50 [7] | IC50 [11] | IC50 [14] | IC50 [17] | further results
1670 nM | 480 nM | 70 nM | 2740 nM | 110 nM | 220 nM | 260 nM | Nc1ccn([C@@H]2O[C@H](CO)[C@@H](O)C2(F)F)c(=O)n1 [GEMCITABINE] | 18% | 860 nM | 25% | 1530 nM | 5730 nM | 220 nM | 5430 nM | 530 nM | T/C [1]: 54%; growth inhibition (GI) [9]: Active
> 500000 nM | > 500000 nM | – | > 500000 nM | – | – | – | CC(C)C[C@H](NC(=O)[C@@H](O)[C@H](N)Cc1ccccc1)C(=O)O [UBENIMEX] | 11% | > 500000 nM | 7.1% | > 500000 nM | > 500000 nM | > 500000 nM | – | > 500000 nM | –
1560 nM | 610 nM | 80 nM | 5480 nM | 130 nM | 260 nM | 660 nM | CC(C)C[C@H](NC(=O)[C@@H](O)[C@H](N)Cc1ccccc1)C(=O)Nc1ccn([C@@H]2O[C@H](CO)[C@@H](O)C2(F)F)c(=O)n1.Cl | 18.4% | 820 nM | 10.7% | 1410 nM | 9730 nM | 260 nM | 22100 nM | 280 nM | Activity [18]: Active; Drug metabolism [19]: Metabolite_Detected; IC50 [20]: 8750 nM; Activity [21]: Active; inhibition at 30 µM [22]: 100%; inhibition [23]: Active; growth inhibition (GI) [24]: Active; T/C [25]: 51%
